Values of other authors in US8338628B2, “Method of synthesizing alkylated bile acid derivatives” (City of Hope, priority 2007, dated 2012).

How the values were obtained:
[1] = background statement
FXR = conditions: in vivo; recent studies
[2] = molecular target: T1, farnesoid X receptor (FXR) (Homo sapiens, UniProt Q96RI1); conditions: background statement
T1 sequence (Q96RI1 1-486): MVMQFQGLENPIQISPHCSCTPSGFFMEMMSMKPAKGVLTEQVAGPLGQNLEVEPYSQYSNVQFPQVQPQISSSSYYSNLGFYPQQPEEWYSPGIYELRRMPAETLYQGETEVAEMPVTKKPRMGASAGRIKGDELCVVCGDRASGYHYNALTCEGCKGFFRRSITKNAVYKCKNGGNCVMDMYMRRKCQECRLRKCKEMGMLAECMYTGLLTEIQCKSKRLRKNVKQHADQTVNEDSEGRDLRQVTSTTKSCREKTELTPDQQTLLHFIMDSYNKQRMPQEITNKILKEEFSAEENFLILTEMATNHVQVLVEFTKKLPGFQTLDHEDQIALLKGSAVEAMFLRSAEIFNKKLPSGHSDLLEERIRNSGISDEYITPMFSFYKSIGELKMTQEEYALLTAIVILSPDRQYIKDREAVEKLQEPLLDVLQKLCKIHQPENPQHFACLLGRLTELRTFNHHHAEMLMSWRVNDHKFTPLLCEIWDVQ

FXR activation (in words) [2]	SMILES	pharmacokinetic properties (in words) [1]	HDL-cholesterol (FXR)	plasma triglycerides (FXR)
–	CC[C@H]1[C@@H](O)[C@@H]2[C@H](CC[C@]3(C)[C@@H]([C@H](C)CCC(=O)O)CC[C@@H]23)[C@@]2(C)CC[C@@H](O)C[C@@H]12 [Compound 6-ECDCA, 3α,7α-Dihydroxy-6α-ethyl-5β-cholan-24-oic acid]	improved pharmacokinetic properties relative to GW4064	–	–
–	CC(C)c1onc(-c2c(Cl)cccc2Cl)c1COc1ccc(/C=C/c2cccc(C(=O)O)c2)c(Cl)c1 [GW4064]	very poor pharmacokinetic properties	increases HDL-cholesterol	reduces plasma triglycerides
activate FXR	C[C@H](CCC(=O)O)[C@H]1CC[C@H]2[C@@H]3[C@H](O)C[C@@H]4C[C@H](O)CC[C@]4(C)[C@H]3C[C@H](O)[C@]12C [cholic acid]	–	–	–
